Source: paper PMC5876397, “An advanced human in vitro co-culture model for translocation studies across the placental barrier” (Scientific Reports, 2018)
Read-outs that look alike come from different tables or passages of the source. One block for each compound: values may come before it.

Assays:
BeWo cells = details: cited from earlier work
[1] = tested on: BeWo b30 / HPEC-A2 co-culture
Experimental: (§2) Polycarbonate Transwell® inserts (pore size 3.0 µm, growth area 1.12 cm^2, apical volume 0.5 ml, basolateral volume 1.5 ml; Corning®, Sigma-Aldrich, Buchs, Switzerland) were pre-coated with 50 µg/ml human placental collagen IV (Sigma-Aldrich, Buchs, Switzerland) for 1 h at 37 °C/5% CO2 (200 µl on both sides). Then the membrane was washed twice with phosphate buffered saline (PBS, pH 7.4, Sigma-Aldrich, Steinheim, Germany). Translocation experiments were done either with BeWo or HPEC monocultures or with both cell lines co-cultivated on a membrane. For the BeWo monolayer 1.5 × 10^5 cells in 500 µl EM were added apically and 1.5 ml EM basolaterally. For the HPEC monolayer the cells were seeded on the basolateral side of the membrane (Fig. 5a–d). Therefore, the reversed insert was placed in a 6-well plate (TPP, Faust AG, Schaffhausen, Switzerland), which had been filled with 1 ml sterile PBS to ensure a humid surrounding. Small rubber spaces (1.5 mm thick) were placed in each corner of the plate in order to slightly lift the lid to prevent direct contact of the lid with the membrane. This enables the adhesion of the drop to the lid, thereby avoiding medium loss as well as cell aggregation in the center. 1 × 10^5 HPECs in 200 µl EM were added to the membrane and the lid was immediately placed on the plate. After 2 h of incubation (37 °C, 5% CO2), the insert was placed into a 12-well plate with fresh EM (0.5 ml apical and 1.5 ml basolateral). For the co-culture, the steps described above for the monocultures were done, starting with the HPEC layer. The inserts were cultivated for 3 d at 37 °C/5% CO2 in EM (medium change after 48 h) under static conditions.
(§3) Translocation studies were performed with co-cultured membranes as well as separate monolayers (BeWo on the apical or HPEC on the basolateral side of the insert) cultivated for 3 d as described above. […] At each time point (0, 0.25, 2, 4, 6, 8, 24 h) samples (50 µl) were taken from the basolateral chamber and renewed with fresh medium. […] Only differences were the use of EM with phenol red and sample volumes of 200 µl (basolateral) at each time point (0, 0.25, 1, 2, 6 h). Analysis of these samples was done by high performance liquid chromatography (HPLC). These studies were conducted in static and shaken (horizontal shaking at 50 rpm) conditions to determine the potential influence of simple shaking on transfer rates.
(§4) The mass transported (ΔQn) was calculated for each time point and corrected for the mass taken before:1 ΔQn=Cn∗Vw+∑j=1n−1Vs∗Cj with the concentration measured at time tn (Cn), the volume of the well (Vw, 1.5 ml) and the sample volume (Vs). The sum of the amount removed during previous sampling is added respectively (Σ). Results were then expressed as basolateral amount of the initial dose (ID) in %. […] The permeability factor was calculated with the following two equations:2 P=ΔQ/Δt/A∗C0 3 Pe=1/(1/Pc−1/Pm) where the permeability factor (P; cm s^−1) is first calculated as the quotient of the amount transported (ΔQ; mg) at a specific time point (Δt; sec) divided by the product of the membrane surface area (cm^2) and the initial concentration of the substance (C0; mg cm^−3). Pe describes the apparent permeability factor corrected for the influence of the membrane. Therefore, the permeability value across the membrane Pm was subtracted from the permeability across the cells (Pc; monolayer or co-culture).

HPEC-A2 monolayer [2] = experiment: Sodium fluorescein (Na-F) exclusion assay, HPEC monoculture; assay type: in vitro ADME, human; details: after 3 d of cultivation, 5 µM Na-F, 3 h incubation
Experimental: (§1) To determine barrier formation, exclusion of Na-F was determined daily for 4 d. 0.5 ml of 5 µM Na-F (Sigma-Aldrich, Buchs, Switzerland) was added to the apical chamber and 1.5 ml EM (without phenol red) to the basal chamber.

BeWo b30 monolayer [3] = tested on: BeWo b30 monolayer
Experimental: as §2, §3, §4

BeWo b30 monolayer [4] = experiment: Sodium fluorescein (Na-F) exclusion assay, BeWo monoculture; assay type: in vitro ADME, human; details: day 3 of cultivation, 5 µM Na-F, 3 h incubation
Experimental: as §1

HPEC-A2 monolayer [5] = tested on: HPEC-A2 monolayer
Experimental: as §2, §3, §4

[6] = tested on: BeWo b30 / HPEC-A2 co-culture; experiment: Sodium fluorescein (Na-F) exclusion assay, co-culture; assay type: in vitro ADME, human; details: day 3 of cultivation, 5 µM Na-F, 3 h incubation
Experimental: as §1

in vitro [7] = details: not told, Permeability factor P2h
Experimental: as §2
(§5) Translocation studies were performed with co-cultured membranes as well as separate monolayers (BeWo on the apical or HPEC on the basolateral side of the insert) cultivated for 3 d as described above. […] At each time point (0, 0.25, 2, 4, 6, 8, 24 h) samples (50 µl) were taken from the basolateral chamber and renewed with fresh medium. […]
(§6) The mass transported (ΔQn) was calculated for each time point and corrected for the mass taken before:1 ΔQn=Cn∗Vw+∑j=1n−1Vs∗Cj with the concentration measured at time tn (Cn), the volume of the well (Vw, 1.5 ml) and the sample volume (Vs). […] Results were then expressed as basolateral amount of the initial dose (ID) in %. […] The permeability factor was calculated with the following two equations:2 P=ΔQ/Δt/A∗C0 3 Pe=1/(1/Pc−1/Pm) where the permeability factor (P; cm s^−1) is first calculated as the quotient of the amount transported (ΔQ; mg) at a specific time point (Δt; sec) divided by the product of the membrane surface area (cm^2) and the initial concentration of the substance (C0; mg cm^−3). […]

in vitro [8] = details: human
Experimental: as §2, §3, §4

BeWo monolayer = details: cited from earlier work
[9] = not told, 2 h
Experimental: as §2, §5, §6

BeWo b30 monolayer [10] = experiment: Translocation study across BeWo monolayer on collagen-coated 3 µm polycarbonate Transwell insert; details: BeWo layer, after 6 h, static, 100 µM
Experimental: as §2, §3, §4

[11] = as above; details: human; for Papp at 2 h, 100 µM: BeWo monolayer
Experimental: as §2, §3, §4

[12] = Translocation study across BeWo/HPEC co-culture (placental barrier model); details: human
Experimental: as §2, §3, §4

[13] = tested on: BeWo b30 / HPEC-A2 co-culture; experiment: as above; details: after 6 h, static, 100 µM
Experimental: as §2, §3, §4

[14] = Translocation across control (empty collagen-coated) insert membrane; details: not told, Permeability factor P2h
Experimental: as §2, §5, §6

[15] = Translocation study across HPEC monolayer on collagen-coated 3 µm polycarbonate Transwell insert; details: human
Experimental: as §2, §3, §4

HPEC-A2 monolayer [16] = experiment: as above; details: after 6 h, static, 100 µM
Experimental: as §2, §3, §4

[17] = Apparent permeability factor Pe, 2h, shaken (50 rpm), median ± mad
[18] = Permeability factor P2h, shaken, without subtraction of Pmembrane
[19] = Permeability factor P2h, static, without subtraction of Pmembrane
[20] = Apparent permeability factor Pe, 2h, static, median ± mad

Structure (SMILES): O=C([O-])c1ccccc1-c1c2ccc(=O)cc-2oc2cc([O-])ccc12.[Na+].[Na+] [Na-F, sodium fluorescein]
- Viability of BeWo cells (BeWo cells; previous publications ref 47, 64): did not affect the viability
- Apparent permeability factor Pe, 2h [1]: 1.1 ± 1.1 × 10^−6 cm s^−1
- Permeability factor P2h [1]: 1.0 ± 1.0 x 10-6 cm s-1
- Transport, basolateral amount of the initial dose (ID) [1]: 35.1%
- Na-F translocation, basolateral amount of ID (HPEC-A2 monolayer [2]): 14.0 % of ID
- Permeability factor P2h (BeWo b30 monolayer [3]): 2.5 ± 0.4 x 10-6 cm s-1
- Transport, basolateral amount of the initial dose (ID) (BeWo b30 monolayer [3]): 34.5%
- Na-F translocation, basolateral amount of ID (BeWo b30 monolayer [4]): 0.5 % of ID
- Transport, basolateral amount of the initial dose (ID) (HPEC-A2 monolayer [5]): 77.0%
- Na-F translocation, basolateral amount of ID [6]: 0.5 % of ID

Structure (SMILES): Cc1cc(=O)n(-c2ccccc2)n1C [antipyrine]
- Papp at 2 h (in vitro [7]): 500 ± 34 nm/s
- Viability of BeWo cells (BeWo cells): did not affect the viability
- Transport, basolateral amount of the initial dose (ID) ([1]; human, 6 h, 100 µM): 80.9%
- Papp at 1 h, 100 µM (in vitro [8]; Permeability P1h): 362 nm/s
- Papp at 1 h, 100 µM (in vitro [8]; Permeability Pe, 1h): 793 nm/s
- Apparent permeability factor Pe, 2h (BeWo b30 monolayer [3]; human, 2 h, 100 µM): 106.4 ± 8.2 × 10^−6 cm s^−1
- Permeability factor P2h (BeWo b30 monolayer [3]; human, 2 h, 100 µM): 26.5 ± 1.1
- Transport, basolateral amount of the initial dose (ID) (BeWo b30 monolayer [3]; human, 6 h, 100 µM): 74.7%
- Permeability Pe,1h (BeWo monolayer): 580 nm/s
- Apparent permeability factor Pe, 2h (HPEC-A2 monolayer [5]; human, 2 h, 100 µM): 76.5 ± 7.0 × 10^−6 cm s^−1
- Permeability factor P2h (HPEC-A2 monolayer [5]; human, 2 h, 100 µM): 24.1 ± 1.0
- Transport, basolateral amount of the initial dose (ID) (HPEC-A2 monolayer [5]; human, 6 h, 100 µM): 71.4%
- Permeability factor P2h [9]: 35.3 ± 0.7

- Transport, basolateral amount of the initial dose (ID) (BeWo b30 monolayer [10]): 45.9%
- Papp at 2 h, 100 µM [11, 17]: 372 ± 119 nm/s
- Papp at 2 h, 100 µM ([11]; Apparent permeability factor Pe, 2h, static, apical to basolateral, median ± mad): 395 ± 80 nm/s
- Papp at 1 h, 100 µM ([11]; Permeability P1h, this study, static, compared with BeWo monolayer literature values): 199 nm/s
- Papp at 2 h, 100 µM [11, 18]: 217 ± 3 nm/s
- Papp at 2 h, 100 µM [11, 19]: 190 ± 35 nm/s
- Papp at 2 h, 100 µM [12, 17]: 307 ± 12 nm/s
- Papp at 2 h, 100 µM [12, 20]: 267 ± 2 nm/s
- Papp at 2 h, 100 µM [12, 18]: 173 ± 8 nm/s
- Papp at 2 h, 100 µM [12, 19]: 153 ± 11 nm/s
- Transport, basolateral amount of the initial dose (ID) [13]: 41.5%
- Papp at 2 h ([14]; shaken): 396 ± 65 nm/s
- Papp at 2 h ([14]; static, median ± mad): 364 ± 11 nm/s
- Papp at 2 h, 100 µM [15, 17]: 227 ± 4 nm/s
- Papp at 2 h, 100 µM [15, 20]: 190 ± 1 nm/s
- Papp at 2 h, 100 µM [15, 18]: 146 ± 12 nm/s
- Papp at 2 h, 100 µM [15, 19]: 126 ± 6 nm/s
- Transport, basolateral amount of the initial dose (ID) (HPEC-A2 monolayer [16]): 42.9%
Structure (SMILES): COc1ccc2c(c1)c(CC(=O)O)c(C)n2C(=O)c1ccc(Cl)cc1 [indomethacin]
- Permeability P1h (BeWo monolayer; BeWo monoculture transfer model, static conditions, Li et al. ref 47): 232 nm/s
